Laboratory results: US20100016367A1, “BIS-PYRINIDIUM COMPOUNDS” (priority 2006, published 2010)
Converted amounts (≈) assume the structure as drawn.

Tests used:
Experiment in all cases: In-vitro activity against dermatophytes, MIC
Type in all cases: cell-based
[1] = test system: Trichophyton soudanense; conditions: 3 isolates
[2] = test system: Epidermophyton floccosum; conditions: 5 isolates
[3] = test system: Trichophyton rubrum; conditions: 20 isolates
[4] = test system: Microsporum cookie; conditions: 2 isolates
[5] = test system: Microsporum canis; conditions: 5 isolates
[6] = test system: Microsporum gypseum; conditions: 5 isolates
[7] = test system: Trichophyton violaceum; conditions: 3 isolates
[8] = test system: Trichophyton mentagrophytes; conditions: 18 isolates
[9] = test system: Trichophyton tonsurans; conditions: 16 isolates

Compound: CCC(C)n1ncn(-c2ccc(N3CCN(c4ccc(OCC5COC(Cn6cncn6)(c6ccc(Cl)cc6Cl)O5)cc4)CC3)cc2)c1=O (stereo not drawn) [ITC, Itraconazole]
- MIC Range, Trichophyton soudanense [1]: 1 to 4 µg/mL
- MIC ([1]; Trichophyton soudanense, read-out: MIC GM, Trichophyton soudanense): 3.42 µg/mL (≈ 4.85 µM)
- MIC Range, Epidermophyton floccosum [2]: 0.063 to 0.5 µg/mL
- MIC ([2]; Epidermophyton floccosum, read-out: MIC GM, Epidermophyton floccosum): 0.226 µg/mL (≈ 0.32 µM)
- MIC Range, Trichophyton rubrum [3]: 0.25 to 4 µg/mL
- MIC50 ([3]; Trichophyton rubrum, MIC at which 50% of the isolates were inhibited): 2 µg/mL (≈ 2.83 µM)
- MIC90 ([3]; Trichophyton rubrum, MIC at which 90% of the isolates were inhibited): 4 µg/mL (≈ 5.67 µM)
- MIC ([3]; Trichophyton rubrum, read-out: MIC GM (geometric mean of the MICs), Trichophyton rubrum): 1.96 µg/mL (≈ 2.77 µM)
- MIC Range, Microsporum cookie [4]: 4 to 8 µg/mL
- MIC ([4]; Microsporum, read-out: MIC GM, Microsporum cookie): 6 µg/mL (≈ 8.5 µM)
- MIC Range, Microsporum canis [5]: 0.25 to 8 µg/mL
- MIC ([5]; Microsporum canis, read-out: MIC GM, Microsporum canis): 1.23 µg/mL (≈ 1.74 µM)
- MIC Range, Microsporum gypseum [6]: 1 to 8 µg/mL
- MIC ([6]; Nannizzia gypsea, read-out: MIC GM, Microsporum gypseum): 3.68 µg/mL (≈ 5.22 µM)
- MIC Range, Trichophyton violaceum [7]: 2 to 8 µg/mL
- MIC ([7]; Trichophyton violaceum, read-out: MIC GM, Trichophyton violaceum): 3.3 µg/mL (≈ 4.68 µM)
- MIC Range, Trichophyton mentagrophytes [8]: 0.125 to 4 µg/mL
- MIC50 ([8]; Trichophyton mentagrophytes): 2 µg/mL (≈ 2.83 µM)
- MIC90 ([8]; Trichophyton mentagrophytes): 4 µg/mL (≈ 5.67 µM)
- MIC ([8]; Trichophyton mentagrophytes, read-out: MIC GM, Trichophyton mentagrophytes): 1.68 µg/mL (≈ 2.38 µM)
- MIC Range, Trichophyton tonsurans [9]: 0.25 to 4 µg/mL
- MIC50 ([9]; Trichophyton tonsurans): 2 µg/mL (≈ 2.83 µM)
- MIC90 ([9]; Trichophyton tonsurans): 4 µg/mL (≈ 5.67 µM)
- MIC ([9]; Trichophyton tonsurans, read-out: MIC GM, Trichophyton tonsurans): 1.65 µg/mL (≈ 2.33 µM)
